Laboratory results published in article PMC8848768, “Synthesis and evaluation of potent yaku'amide A analogs” (Chemical Science, 2022).
pIC50: −log10 of the molar value. Where two headings read alike, the source gives them in different places. Numbered stars: 1 amine (or outer) side, 2 acyl side, 3 side chain; on linkers, the order of the positions; unused ones are H or OH. Square brackets hold non-standard residues; d marks the D form. Peptide text beside a SMILES is read from it. * marks the point of attachment. Heptanoyl(3-oxo-2,2,4S,6-Me) = CC(C)C[C@H](C)C(=O)C(C)(C)C(=O)*; NH((S)-1-NMe2-3-Me-but-2-yl) = CC(C)[C@@H](CN(C)C)N*; Ile(3R-OH) = CC[C@@](C)(O)[C@H](N)C(=O)O; dVal(3-OH) = CC(C)(O)[C@@H](N)C(=O)O; d(aIle) = CC[C@H](C)[C@@H](N)C(=O)O; Val(3-OH) = CC(C)(O)[C@H](N)C(=O)O; X1 = CCC(CC)=C(N[*:1])C(=O)[*:2]; NHCH2CH2NMe2 = CN(C)CCN*; ΔVal = CC(C)=C(N)C(=O)O

Experiments:
BXPC3 = test: cells; details: read-out: Aver IC50, BXPC3
Experimental: (§1) The antiproliferative activity profiles of 1a, its full-length analogs 2a and 2b, and its partial structures (23, 24, 26, and 30) were determined by in vitro screening in 72 hours MTS cell proliferation assays against a panel of 18 different human cancer cell lines. […] The three peptides were also evaluated for their antiproliferative activity against the lung fibroblast MRC5 cell line.
(§2) Cells (40 µ L) are added into individual wells of a 384-well black/clear bottom plate on day zero at concentrations enabling continuous log growth over the course of the assay. On day one, compounds (or DMSO) are transferred using an ATS-liquid handler (100 nL per well) to individual wells containing cells and the cells are treated for 72 hours (37 °C, 5% CO 2) prior to measuring proliferation using MTS reagent following manufacturer’s instructions. Net OD values are determined by subtracting the average OD values of cells (measured on day 1, T = 0) from average total OD value of cells (measured on day 4, T = 72h). IC 50 values are calculated using proprietary software (IC 50 values normalized against all compounds). Results represent n>2 independent studies (in duplicate).
(§3) Table S1. Antiproliferative Data of Compounds 1a, 2a, 2b, 23, 24, 26, and 30.
(§4) Table S2. Human Cell Line Descriptions.
(§5) Human Cell Line* Description
(§6) *All cells were obtained from ATCC and are authenticated

A549 = test: cells; details: read-out: Aver IC50, A549
Experimental: as §1, §2, §3, §4, §5, §6

JURKAT = test: cells; details: read-out: Aver IC50, JURKAT
Experimental: as §1, §2, §3, §4, §5, §6

THP1 = test: cells; details: read-out: Aver IC50, THP1
Experimental: as §1, §2, §3, §4, §5, §6

A375 = test: cells; details: read-out: Aver IC50, A375
Experimental: as §1, §2, §3, §4, §5, §6

NCIH1048 = test: cells; details: read-out: Aver IC50, NCIH1048
Experimental: as §1, §2, §3, §4, §5, §6

HT29 = test: cells; details: read-out: Aver IC50, HT29
Experimental: as §1, §2, §3, §4, §5, §6

RAMOS = test: cells; details: read-out: Aver IC50, RAMOS
Experimental: as §1, §2, §3, §4, §5, §6

HL60 = test: cells; details: read-out: Aver IC50, HL60
Experimental: as §1, §2, §3, §4, §5, §6

[1] = tested on: lung fibroblast MRC5 cell line; test: cells; details: read-out: Aver IC50, MRC5
Experimental: as §1, §2, §3, §4, §5, §6

MV411 = test: cells; details: read-out: Aver IC50, MV411
Experimental: as §1, §2, §3, §4, §5, §6

U937 = test: cells; details: read-out: Aver IC50, U937
Experimental: as §1, §2, §3, §4, §5, §6

SNUC1 = test: cells; details: read-out: Aver IC50, SNUC1
Experimental: as §1, §2, §3, §4, §5, §6

PANC1005 = test: cells; details: read-out: Aver IC50, PANC1005
Experimental: as §1, §2, §3, §4, §5, §6

COLO678 = test: cells; details: read-out: Aver IC50, COLO678
Experimental: as §1, §2, §3, §4, §5, §6

OVCAR3 = test: cells; details: read-out: Aver IC50, OVCAR3
Experimental: as §1, §2, §3, §4, §5, §6

HCT116 = test: cells; details: read-out: Aver IC50, HCT116
Experimental: as §1, §2, §3, §4, §5, §6

CALU6 = test: cells; details: read-out: Aver IC50, CALU6
Experimental: as §1, §2, §3, §4, §5, §6

MCF7 = details: read-out: Aver IC50, MCF7; MCF7 (Breast Carcinoma); MTS, 72 hours, 37 °C, 5% CO2, 384-well; n>2 independent studies (in duplicate)
Experimental: as §1, §2, §3, §4, §5, §6

[2] = BXPC3 (Pancreatic - Adenocarcinoma), MTS, 72 hours, 37 °C, 5% CO2, 384-well, n>2 independent studies (in duplicate)
[3] = A549 (Lung - NSCLC), MTS, 72 hours, 37 °C, 5% CO2, 384-well, n>2 independent studies (in duplicate)
[4] = JURKAT (acute T-cell leukemia), MTS, 72 hours, 37 °C, 5% CO2, 384-well, n>2 independent studies (in duplicate)
[5] = THP1 (Acute Monocytic Leukemia), MTS, 72 hours, 37 °C, 5% CO2, 384-well, n>2 independent studies (in duplicate)
[6] = A375 (Malignant Melanoma), MTS, 72 hours, 37 °C, 5% CO2, 384-well, n>2 independent studies (in duplicate)
[7] = NCIH1048 (Lung - SCLC), MTS, 72 hours, 37 °C, 5% CO2, 384-well, n>2 independent studies (in duplicate)
[8] = HT29 (Colon Carcinoma), MTS, 72 hours, 37 °C, 5% CO2, 384-well, n>2 independent studies (in duplicate)
[9] = RAMOS (Burkitt's lymphoma), MTS, 72 hours, 37 °C, 5% CO2, 384-well, n>2 independent studies (in duplicate)
[10] = HL60 (Leukema - Promyelocytic), MTS, 72 hours, 37 °C, 5% CO2, 384-well, n>2 independent studies (in duplicate)
[11] = MRC5 (Lung Fibroblast, noncancerous), MTS, 72 hours, 37 °C, 5% CO2, 384-well, n>2 independent studies (in duplicate)
[12] = MV411 (Acute Myeloid Leukemia), MTS, 72 hours, 37 °C, 5% CO2, 384-well, n>2 independent studies (in duplicate)
[13] = U937 (Pro-monocytic, Human Myeloid Leukemia), MTS, 72 hours, 37 °C, 5% CO2, 384-well, n>2 independent studies (in duplicate)
[14] = SNUC1 (Colon Carcinoma), MTS, 72 hours, 37 °C, 5% CO2, 384-well, n>2 independent studies (in duplicate)
[15] = PANC1005 (Pancreatic - Adenocarcinoma), MTS, 72 hours, 37 °C, 5% CO2, 384-well, n>2 independent studies (in duplicate)
[16] = COLO678 (Colon Carcinoma), MTS, 72 hours, 37 °C, 5% CO2, 384-well, n>2 independent studies (in duplicate)
[17] = OVCAR3 (Ovary - Adenocarcinoma), MTS, 72 hours, 37 °C, 5% CO2, 384-well, n>2 independent studies (in duplicate)
[18] = HCT116 (Colon Carcinoma), MTS, 72 hours, 37 °C, 5% CO2, 384-well, n>2 independent studies (in duplicate)
[19] = CALU6 (Lung - Adenocarcinoma), MTS, 72 hours, 37 °C, 5% CO2, 384-well, n>2 independent studies (in duplicate)

SMILES | pIC50 (BXPC3; [2]) | pIC50 (A549; [3]) | pIC50 (JURKAT; [4]) | pIC50 (THP1; [5]) | pIC50 (A375; [6]) | pIC50 (NCIH1048; [7]) | pIC50 (HT29; [8]) | pIC50 (RAMOS; [9]) | pIC50 (HL60; [10]) | pIC50 [1, 11] | pIC50 (MV411; [12]) | pIC50 (U937; [13]) | pIC50 (SNUC1; [14]) | pIC50 (PANC1005; [15]) | pIC50 (COLO678; [16]) | pIC50 (OVCAR3; [17]) | pIC50 (HCT116; [18]) | pIC50 (CALU6; [19]) | pIC50 (BXPC3; Homo sapiens, BXPC-3, 72 h) | pIC50 (A549; Homo sapiens, A549, 72 h) | also measured
CC[C@H](C)[C@@H](NC(C)=O)C(=O)N[C@@H](C(=O)N[C@H](C(=O)NC(C(=O)N[C@H](C)C(=O)N[C@@H](C(=O)N[C@H](C(=O)NC(C(=O)N[C@H](CN(C)C)C(C)C)=C(C)C)C(C)C)C(C)C)=C(C)C)C(C)(C)O)C(C)(C)O [Compound 24] (Ac-[d(aIle)][dVal(3-OH)][Val(3-OH)][ΔVal][dA][dV]V[ΔVal]-{NH((S)-1-NMe2-3-Me-but-2-yl)}) | < 4.60 | < 4.60 | < 4.60 | < 4.60 | < 4.60 | < 4.60 | < 4.60 | < 4.60 | < 4.60 | < 4.60 | < 4.60 | < 4.60 | 4.60 | < 4.60 | < 4.60 | < 4.60 | < 4.60 | < 4.60 | – | – | –
CC[C@@]1(O)C(=O)OCc2c1cc1n(c2=O)Cc2cc3ccccc3nc2-1 [Camptothecin, reference compound] | – | – | – | – | – | – | – | – | – | – | – | – | – | – | – | – | – | – | 7.42 | 7.56 | pIC50 (JURKAT; Homo sapiens, Jurkat, 72 h): 8.14; pIC50 (THP1; Homo sapiens, THP-1, 72 h): 7.35; pIC50 (A375; Homo sapiens, A-375, 72 h): 8.23; pIC50 (NCIH1048; Homo sapiens, NCI-H1048, 72 h): 8.01; pIC50 (HT29; Homo sapiens, HT-29, 72 h): 6.99; pIC50 (RAMOS; Homo sapiens, Ramos, 72 h): 8.01; pIC50 (HL60; Homo sapiens, HL-60, 72 h): 7.68; pIC50 ([1]; Homo sapiens, MRC5, 72 h): 7.28; pIC50 (MV411; Homo sapiens, MV4-11, 72 h): 8.15; pIC50 (U937; Homo sapiens, U-937, 72 h): 7.71; pIC50 (SNUC1; Homo sapiens, SNU-C1, 72 h): 7.32; pIC50 (PANC1005; Homo sapiens, Panc1005, 72 h): 7.34; pIC50 (COLO678; Homo sapiens, COLO-678, 72 h): 6.90; pIC50 (OVCAR3; Homo sapiens, OVCAR-3, 72 h): 7.27; pIC50 (HCT116; Homo sapiens, HCT-116, 72 h): 7.96; pIC50 (CALU6; Homo sapiens, Calu-6, 72 h): 7.99
CC(=O)N[C@@H](C(=O)N[C@H](C(=O)NC(C(=O)N[C@H](CN(C)C)C(C)C)=C(C)C)C(C)C)C(C)C [Compound 23] | < 4.60 | < 4.60 | < 4.60 | < 4.60 | < 4.60 | < 4.60 | < 4.60 | < 4.60 | < 4.60 | < 4.60 | < 4.60 | < 4.60 | < 4.60 | < 4.60 | < 4.60 | < 4.60 | < 4.60 | < 4.60 | – | – | –
CC(=O)O[C@H]1C(=O)[C@@]2(C)[C@H]([C@H](OC(=O)c3ccccc3)[C@]3(O)C[C@H](OC(=O)[C@H](O)[C@@H](NC(=O)c4ccccc4)c4ccccc4)C(C)=C1C3(C)C)[C@]1(OC(C)=O)CO[C@@H]1C[C@@H]2O [Paclitaxel, reference compound] | – | – | – | – | – | – | – | – | – | – | – | – | – | – | – | – | – | – | 8.26 | 8.34 | pIC50 (JURKAT; Homo sapiens, Jurkat, 72 h): 8.28; pIC50 (THP1; Homo sapiens, THP-1, 72 h): 8.17; pIC50 (A375; Homo sapiens, A-375, 72 h): 8.11; pIC50 (NCIH1048; Homo sapiens, NCI-H1048, 72 h): 8.33; pIC50 (HT29; Homo sapiens, HT-29, 72 h): 8.22; pIC50 (RAMOS; Homo sapiens, Ramos, 72 h): 8.23; pIC50 (HL60; Homo sapiens, HL-60, 72 h): 8.01; pIC50 ([1]; Homo sapiens, MRC5, 72 h): 8.06; pIC50 (MV411; Homo sapiens, MV4-11, 72 h): 8.36; pIC50 (U937; Homo sapiens, U-937, 72 h): 8.52; pIC50 (SNUC1; Homo sapiens, SNU-C1, 72 h): 7.58; pIC50 (PANC1005; Homo sapiens, Panc1005, 72 h): 8.13; pIC50 (COLO678; Homo sapiens, COLO-678, 72 h): 7.62; pIC50 (OVCAR3; Homo sapiens, OVCAR-3, 72 h): 8.52; pIC50 (HCT116; Homo sapiens, HCT-116, 72 h): 8.47; pIC50 (CALU6; Homo sapiens, Calu-6, 72 h): 8.44
CCC(CC)=C(NC(=O)CNC(=O)C(NC(=O)[C@@H](NC(=O)C(C)(C)C(=O)[C@@H](C)CC(C)C)[C@](C)(O)CC)=C(C)C)C(=O)N[C@@H](C(=O)N[C@@H](C(=O)N[C@@H](C(=O)N[C@H](C(=O)NC(C(=O)N[C@H](C)C(=O)NCCN(C)C)=C(C)C)C(C)(C)O)C(C)(C)O)[C@@H](C)CC)C(C)C [Compound 30] ({Heptanoyl(3-oxo-2,2,4S,6-Me)}-[Ile(3R-OH)][ΔVal]G[X1][dV][d(aIle)][dVal(3-OH)][Val(3-OH)][ΔVal][dA]-NHCH2CH2NMe2) | < 4.60 | 4.69 | 4.64 | < 4.60 | 4.61 | < 4.60 | < 4.60 | 4.61 | 4.70 | < 4.60 | 5.57 | < 4.60 | 4.69 | < 4.60 | < 4.60 | 4.90 | < 4.60 | < 4.60 | – | – | pIC50 (MCF7): 4.90
